Test results published in ChEMBL document CHEMBL1201862, “PubChem BioAssay data set” (2004).
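Cells were grown in 96-well plates and exposed to each compound for 48 hours at five concentrations; endpoints were interpolated linearly between bracketing concentrations, or set to the highest concentration if not reached. GI50 marks 50% less growth.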 Active and inactive are the calls of the source. Cut-off read from the data, not from the text of the source: active = GI50 up to about 1.1 µM and inactive = higher. Where a SMILES comes first, the peptide text is derived from it. The star is where a group is joined. Cbz = O=C(OCc1ccccc1)*

Legend:
Experiment in all cases: NCI-60 cell line screen, 48 h
[1] = test system: HT-29
[2] = test system: SW-620
[3] = test system: IGROV-1
[4] = test system: OVCAR-5
[5] = test system: UO-31
[6] = test system: SF-268
[7] = test system: MCF7
[8] = test system: TK-10
[9] = test system: U-251
[10] = test system: HOP-92
[11] = test system: OVCAR-3
[12] = test system: T47D
[13] = test system: RXF 393
[14] = test system: ACHN
[15] = test system: A498
[16] = test system: NCI-H23
[17] = test system: HCT-116
[18] = test system: K562
[19] = test system: SNB-75
[20] = test system: CCRF-CEM

Measured: GI50

CC(=O)NC(Cc1ccc(O)cc1)C(=O)O (stereo unspecified)
inactive: [1] > 100 µM | [2] > 100 µM | [3] > 100 µM | [4] > 100 µM | [5] > 100 µM | [6] > 100 µM | [7] > 100 µM | [8] > 100 µM | [9] > 100 µM | [10] > 100 µM | [11] > 100 µM | [12] > 100 µM | [13] > 100 µM | [14] > 100 µM | [15] > 100 µM | [16] > 100 µM | [17] > 100 µM | [18] > 100 µM

CN(C)CCCc1cccc2[nH]c3c(c12)CN(C)CC3
inactive: [1] 40.1 µM | [2] > 100 µM | [3] 73.1 µM | [4] > 100 µM | [5] > 100 µM | [6] > 100 µM | [19] 78 µM | [20] 63.2 µM | [7] > 100 µM | [8] > 100 µM | [9] > 100 µM | [10] > 100 µM | [11] > 100 µM | [12] > 100 µM | [13] 19.7 µM | [14] > 100 µM | [16] > 100 µM | [17] > 100 µM | [18] 76.7 µM

COC(=O)C(CC(C)C)NC(=O)C(CCCNC(=N)N)NC(=O)OCc1ccccc1 (stereo not drawn) (Cbz-Arg-Leu-OMe; configuration not given here)
inactive: [1] > 100 µM | [2] > 100 µM | [3] > 100 µM | [4] > 100 µM | [5] > 100 µM | [6] > 100 µM | [19] 72.6 µM | [20] > 100 µM | [7] > 100 µM | [8] > 100 µM | [9] > 100 µM | [10] > 100 µM | [11] > 100 µM | [12] > 100 µM | [13] > 100 µM | [14] > 100 µM | [16] > 100 µM | [17] > 100 µM | [18] > 100 µM

O=C1C(Cl)C2(CC(/C=C/c3ccccc3Cl)=NN2c2cccc(S(=O)(=O)O)c2)N1c1nc2ccccc2s1 (stereo unspecified)
inactive: [1] 98.2 µM | [2] 19.4 µM | [3] 26.9 µM | [4] > 100 µM | [5] 4.82 µM | [6] 66.4 µM | [19] 43.5 µM | [20] 8.11 µM | [7] 21.6 µM | [8] 24.2 µM | [9] 41.7 µM | [10] 36.6 µM | [12] 11.3 µM | [13] 42.8 µM | [14] 42.7 µM | [15] 66.7 µM | [16] 33.6 µM | [17] 49.7 µM | [18] 2.11 µM

Clc1nc2c(C#Cc3ccccc3)ncnc2n1C1CCCCO1 (stereo unspecified)
inactive: [1] 12.4 µM | [2] 16.3 µM | [3] 13.5 µM | [4] 12.6 µM | [5] 11.9 µM | [6] 14 µM | [19] 18.1 µM | [20] 5.15 µM | [7] 8.32 µM | [8] 20.5 µM | [9] 12.6 µM | [10] 14.8 µM | [11] 14.8 µM | [12] 19.1 µM | [13] 10.4 µM | [14] 16.1 µM | [16] 12.9 µM | [17] 10 µM | [18] 30.3 µM

CCCCNN
inactive: [1] > 100 µM | [2] > 100 µM | [3] > 100 µM | [4] > 100 µM | [5] > 100 µM | [19] > 100 µM | [20] 43 µM | [7] > 100 µM | [8] > 100 µM | [9] > 100 µM | [11] > 100 µM | [12] > 100 µM | [13] > 100 µM | [14] > 100 µM | [15] > 100 µM | [16] > 100 µM | [17] > 100 µM | [18] > 100 µM

c1ccc2c[n+](Cc3ccnc4ccccc34)ccc2c1
inactive: [1] 51.8 µM | [2] > 100 µM | [3] > 100 µM | [4] > 100 µM | [5] > 100 µM | [6] > 100 µM | [20] > 100 µM | [7] > 100 µM | [8] > 100 µM | [9] > 100 µM | [10] 97.7 µM | [11] 67 µM | [12] > 100 µM | [13] > 100 µM | [14] > 100 µM | [15] > 100 µM | [16] > 100 µM | [17] > 100 µM | [18] > 100 µM

CC(=O)O[C@@H]1C2=C(C)C=C(O2)[C@H]2O[C@]2(C)C[C@H]2C=C(C(=O)O2)[C@H](OC(C)=O)CC1[C@@]1(C)CO1 (stereo partly specified)
inactive: [1] 25.4 µM | [2] 12.8 µM | [3] 14.3 µM | [4] 26.4 µM | [5] 20.1 µM | [6] 42 µM | [19] 42.5 µM | [20] 8.59 µM | [7] 18 µM | [8] 60.3 µM | [9] 19.1 µM | [12] 18.8 µM | [13] 17.2 µM | [14] 23.7 µM | [15] > 100 µM | [16] 28.9 µM | [17] 15.1 µM | [18] 17 µM

O=C(Nc1cccc(C(F)(F)F)c1)c1cc(Br)cc(Br)c1O [FLUOROSALAN]
inactive: [1] 3.91 µM | [2] 3.9 µM | [3] 4.28 µM | [4] 4.76 µM | [5] 2.35 µM | [6] 4.25 µM | [19] 3.35 µM | [20] 3.22 µM | [7] 2.89 µM | [8] 2.96 µM | [9] 3.79 µM | [10] 2.27 µM | [11] 2.24 µM | [12] 3.24 µM | [13] 2.71 µM | [14] 3.06 µM | [16] 2.22 µM | [17] 2.32 µM | [18] 2.08 µM

CCOc1c(OC)cc(-c2nc3n(n2)C(=O)C(CC)S3)cc1OC (stereo unspecified)
inactive: [1] > 10 µM | [2] > 10 µM | [3] > 10 µM | [4] > 10 µM | [6] > 10 µM | [19] > 10 µM | [20] > 10 µM | [7] > 10 µM | [8] > 10 µM | [9] > 10 µM | [11] > 10 µM | [12] > 10 µM | [13] > 10 µM | [14] > 10 µM | [15] > 10 µM | [16] > 10 µM | [17] > 10 µM | [18] > 10 µM

Cc1ccc(S(=O)(=O)NNC(=S)Nc2cccc3ccccc23)cc1
inactive: [1] 56.5 µM | [2] > 100 µM | [3] 61.5 µM | [4] 89.3 µM | [5] 43.4 µM | [6] 70.6 µM | [19] 27.9 µM | [20] 34.7 µM | [7] 31.6 µM | [8] 53.7 µM | [9] 40.6 µM | [10] 30.6 µM | [12] 39.5 µM | [13] 85.9 µM | [14] 29.9 µM | [15] 39.1 µM | [16] 32.3 µM | [17] 55.2 µM | [18] 35.5 µM

CC(C)(C)OC(=O)NC(C)(C)C(=O)NCCC(=O)O
inactive: [1] > 100 µM | [2] > 100 µM | [3] > 100 µM | [4] > 100 µM | [5] > 100 µM | [6] > 100 µM | [19] > 100 µM | [20] > 100 µM | [7] > 100 µM | [8] > 100 µM | [9] > 100 µM | [11] > 100 µM | [12] > 100 µM | [13] > 100 µM | [14] > 100 µM | [15] > 100 µM | [16] > 100 µM | [18] > 100 µM

CCOC(=O)C1(C#N)C(=O)c2cc[n+](CC[n+]3ccc4c(c3)C(=O)C(C#N)(C(=O)OCC)C4=O)cc2C1=O (stereo unspecified)
inactive: [1] > 100 µM | [2] > 100 µM | [3] > 100 µM | [4] > 100 µM | [5] > 100 µM | [6] 96.8 µM | [19] > 100 µM | [20] > 100 µM | [7] > 100 µM | [9] > 100 µM | [10] > 100 µM | [11] 25.4 µM | [12] 53.3 µM | [13] > 100 µM | [14] > 100 µM | [15] > 100 µM | [16] > 100 µM | [17] > 100 µM | [18] 86.1 µM

O=C1c2ccccc2-c2nnc3c(c21)-c1ccccc1C3
inactive: [1] 48 µM | [2] 53.2 µM | [4] > 100 µM | [5] 23.2 µM | [6] > 100 µM | [19] 76 µM | [20] 89.3 µM | [7] 64.6 µM | [9] 67 µM | [10] > 100 µM | [12] > 100 µM | [13] > 100 µM | [14] 27.5 µM | [16] > 100 µM | [17] 64 µM

CC(C)(C)NC(=O)/C(=C\Sc1ccccc1)c1ccccc1
inactive: [1] > 100 µM | [2] > 100 µM | [3] > 100 µM | [4] > 100 µM | [5] > 100 µM | [19] > 100 µM | [20] 40.6 µM | [7] > 73.8 µM | [8] > 100 µM | [9] > 100 µM | [10] 2.54 µM | [11] > 100 µM | [12] 56.1 µM | [13] > 100 µM | [14] > 100 µM | [15] > 100 µM | [16] > 41.7 µM | [17] > 65.6 µM | [18] 32.7 µM
